Reference: patent US20240190880A1 (THE REGENTS OF THE UNIVERSITY OF MICHIGAN, priority 2021, published 2024)

Target: T1, ER (Homo sapiens, UniProt P03372)
T1 construct: host or cells: T47D and MCF7 human breast cancer cells
T1 sequence (P03372 1-595): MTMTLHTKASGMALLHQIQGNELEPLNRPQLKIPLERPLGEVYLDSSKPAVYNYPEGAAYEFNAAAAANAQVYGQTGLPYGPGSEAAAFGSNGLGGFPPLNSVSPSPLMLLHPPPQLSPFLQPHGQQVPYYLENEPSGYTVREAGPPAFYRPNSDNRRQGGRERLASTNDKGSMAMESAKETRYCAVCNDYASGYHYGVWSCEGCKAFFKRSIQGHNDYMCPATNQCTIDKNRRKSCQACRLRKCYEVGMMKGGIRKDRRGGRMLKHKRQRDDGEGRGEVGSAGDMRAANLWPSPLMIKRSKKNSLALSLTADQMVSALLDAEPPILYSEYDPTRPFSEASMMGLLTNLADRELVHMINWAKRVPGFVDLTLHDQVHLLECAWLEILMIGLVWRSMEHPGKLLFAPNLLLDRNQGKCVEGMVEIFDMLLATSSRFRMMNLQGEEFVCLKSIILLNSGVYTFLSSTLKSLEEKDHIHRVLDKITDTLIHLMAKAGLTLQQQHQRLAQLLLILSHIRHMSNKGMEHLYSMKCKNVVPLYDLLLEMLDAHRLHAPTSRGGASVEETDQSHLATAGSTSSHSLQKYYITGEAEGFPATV
Test: ER degradation activity, in-cell western blot analysis in T47D cells
Assay type: cell-based
Conditions: 16 hours, Table A does not say which cell line (T47D or MCF7), read-out: Potency (DC50)
How it was run: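 Human T47D cells (DMEM, 10% FBS) are dosed for 16 h with 0.5% DMSO final and probed with 680- and 800-dye secondary antibodies. Relative ER is calculated against vehicle and untreated wells.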

Row | Compound | DC50
1 | C[C@@H]1Cc2c([nH]c3ccccc23)[C@@H](c2c(F)cc(N3CCC(C(=O)N4CCC(N5Cc6cc7c(cc6C5)C(=O)N(C5CCC(=O)NC5=O)C7=O)CC4)CC3)cc2F)N1CC(F)F (stereo partly drawn) [E 114, 6-(1-(1-(4-((1R,3R)-2-(2,2-difluoroethyl)-3-methyl-2,3,4,9-tetrahydro-1H-pyrido[3,4-b]indol-1-yl)-3,5-difluorophenyl)piperidine-4-carbonyl)piperidin-4-yl)-2-(2,6-dioxopiperidin-3-yl)-6,7-dihydropyrrolo[3,4-f]isoindole-1,3(2H,5H)-dione] | < 10 nM
2 | C[C@@H]1Cc2c([nH]c3ccccc23)[C@@H](c2c(F)cc(N3CC4(CC(C(=O)N5CCC(CN6Cc7cc8c(cc7C6)C(=O)N(C6CCC(=O)NC6=O)C8=O)CC5)C4)C3)cc2F)N1CC(F)F (stereo partly drawn) [E 115, 6-((1-(2-(4-((1R,3R)-2-(2,2-difluoroethyl)-3-methyl-2,3,4,9-tetrahydro-1H-pyrido[3,4-b]indol-1-yl)-3,5-difluorophenyl)-2-azaspiro[3.3]heptane-6-carbonyl)piperidin-4-yl)methyl)-2-(2,6-dioxopiperidin-3-yl)-6,7-dihydropyrrolo[3,4-f]isoindole-1,3(2H,5H)-dione] | < 10 nM
3 | C[C@@H]1Cc2c([nH]c3ccccc23)[C@@H](c2c(F)cc(N3CC4(CC(C(=O)N5CCC(N6Cc7cc8c(cc7C6)C(=O)N(C6CCC(=O)NC6=O)C8=O)CC5)C4)C3)cc2F)N1CC(F)F (stereo partly drawn) [E 116, 6-(1-(2-(4-((1R,3R)-2-(2,2-difluoroethyl)-3-methyl-2,3,4,9-tetrahydro-1H-pyrido[3,4-b]indol-1-yl)-3,5-difluorophenyl)-2-azaspiro[3.3]heptane-6-carbonyl)piperidin-4-yl)-2-(2,6-dioxopiperidin-3-yl)-6,7-dihydropyrrolo[3,4-f]isoindole-1,3(2H,5H)-dione] | < 10 nM
4 | C[C@@H]1Cc2c([nH]c3ccccc23)[C@@H](c2c(F)cc(N3CCC(N4CC(CN5Cc6cc7c(cc6C5)C(=O)N(C5CCC(=O)NC5=O)C7=O)C4)CC3)cc2F)N1CC(F)F (stereo partly drawn) [E 117, 6-((1-(1-(4-((1R,3R)-2-(2,2-difluoroethyl)-3-methyl-2,3,4,9-tetrahydro-1H-pyrido[3,4-b]indol-1-yl)-3,5-difluorophenyl)piperidin-4-yl)azetidin-3-yl)methyl)-2-(2,6-dioxopiperidin-3-yl)-6,7-dihydropyrrolo[3,4-f]isoindole-1,3(2H,5H)-dione] | 10 to 100 nM
5 | C[C@@H]1Cc2c([nH]c3ccccc23)[C@@H](c2c(F)cc(N3CCC(N4CCC(CN5Cc6cc7c(cc6C5)C(=O)N(C5CCC(=O)NC5=O)C7=O)CC4)CC3)cc2F)N1CC(F)F (stereo partly drawn) [E 118, 6-((1′-(4-((1R,3R)-2-(2,2-difluoroethyl)-3-methyl-2,3,4,9-tetrahydro-1H-pyrido[3,4-b]indol-1-yl)-3,5-difluorophenyl)-[1,4′-bipiperidin]-4-yl)methyl)-2-(2,6-dioxopiperidin-3-yl)-6,7-dihydropyrrolo[3,4-f]isoindole-1,3(2H,5H)-dione] | > 100 nM
6 | C[C@@H]1Cc2c([nH]c3ccccc23)[C@@H](c2c(F)cc(N3CCC(N4CC(C(=O)N5Cc6cc7c(cc6C5)C(=O)N(C5CCC(=O)NC5=O)C7=O)C4)CC3)cc2F)N1CC(F)F (stereo partly drawn) [E 119, 6-(1-(1-(4-((1R,3R)-2-(2,2-difluoroethyl)-3-methyl-2,3,4,9-tetrahydro-1H-pyrido[3,4-b]indol-1-yl)-3,5-difluorophenyl)piperidin-4-yl)azetidine-3-carbonyl)-2-(2,6-dioxopiperidin-3-yl)-6,7-dihydropyrrolo[3,4-f]isoindole-1,3(2H,5H)-dione] | > 100 nM
7 | C[C@@H]1Cc2c([nH]c3ccccc23)[C@@H](c2c(F)cc(N3CCC(N4CC(C(=O)N5Cc6cc7c(cc6C5)C(=O)N(C5CCC(=O)NC5=O)C7)C4)CC3)cc2F)N1CC(F)F (stereo partly drawn) [E 120, 3-(6-(1-(1-(4-((1R,3R)-2-(2,2-difluoroethyl)-3-methyl-2,3,4,9-tetrahydro-1H-pyrido[3,4-b]indol-1-yl)-3,5-difluorophenyl)piperidin-4-yl)azetidine-3-carbonyl)-1-oxo-3,5,6,7-tetrahydropyrrolo[3,4-f]isoindol-2(1H)-yl)piperidine-2,6-dione] | 10 to 100 nM
8 | C[C@@H]1Cc2c([nH]c3ccccc23)[C@@H](c2c(F)cc(N3CC(C(=O)N4CCC(CN5Cc6cc7c(cc6C5)C(=O)N(C5CCC(=O)NC5=O)C7=O)CC4)C3)cc2F)N1CC(F)F (stereo partly drawn) [E 121, 6-((1-(1-(4-((1R,3R)-2-(2,2-difluoroethyl)-3-methyl-2,3,4,9-tetrahydro-1H-pyrido[3,4-b]indol-1-yl)-3,5-difluorophenyl)azetidine-3-carbonyl)piperidin-4-yl)methyl)-2-(2,6-dioxopiperidin-3-yl)-6,7-dihydropyrrolo[3,4-f]isoindole-1,3(2H,5H)-dione] | < 10 nM
9 | C[C@@H]1Cc2c([nH]c3ccccc23)[C@@H](c2c(F)cc(N3CC(C(=O)N4CCC(N5Cc6cc7c(cc6C5)C(=O)N(C5CCC(=O)NC5=O)C7=O)CC4)C3)cc2F)N1CC(F)F (stereo partly drawn) [E 122, 6-(1-(1-(4-((1R,3R)-2-(2,2-difluoroethyl)-3-methyl-2,3,4,9-tetrahydro-1H-pyrido[3,4-b]indol-1-yl)-3,5-difluorophenyl)azetidine-3-carbonyl)piperidin-4-yl)-2-(2,6-dioxopiperidin-3-yl)-6,7-dihydropyrrolo[3,4-f]isoindole-1,3(2H,5H)-dione] | < 10 nM
10 | C[C@@H]1Cc2c([nH]c3ccccc23)[C@@H](c2c(F)cc(N3CCC(CN4CC(N5Cc6cc7c(cc6C5)C(=O)N(C5CCC(=O)NC5=O)C7=O)C4)CC3)cc2F)N1CC(F)F (stereo partly drawn) [E 123, 6-(1-((1-(4-((1R,3R)-2-(2,2-difluoroethyl)-3-methyl-2,3,4,9-tetrahydro-1H-pyrido[3,4-b]indol-1-yl)-3,5-difluorophenyl)piperidin-4-yl)methyl)azetidin-3-yl)-2-(2,6-dioxopiperidin-3-yl)-6,7-dihydropyrrolo[3,4-f]isoindole-1,3(2H,5H)-dione] | 10 to 100 nM
11 | C[C@@H]1Cc2c([nH]c3ccccc23)[C@@H](c2c(F)cc(N3CCC(N4CCC(CN5Cc6cc7c(cc6C5)C(=O)N(C5CCC(=O)NC5=O)C7=O)CC4)C3)cc2F)N1CC(F)F (stereo partly drawn) [E 124, 6-((1-(1-(4-((1R,3R)-2-(2,2-difluoroethyl)-3-methyl-2,3,4,9-tetrahydro-1H-pyrido[3,4-b]indol-1-yl)-3,5-difluorophenyl)pyrrolidin-3-yl)piperidin-4-yl)methyl)-2-(2,6-dioxopiperidin-3-yl)-6,7-dihydropyrrolo[3,4-f]isoindole-1,3(2H,5H)-dione] | > 100 nM
12 | C[C@@H]1Cc2c([nH]c3ccccc23)[C@@H](c2c(F)cc(N3CCC(CN4CCC(CN5Cc6cc7c(cc6C5)C(=O)N(C5CCC(=O)NC5=O)C7=O)CC4)CC3)cc2F)N1CC(F)F (stereo partly drawn) [E 128, 6-((1-((1-(4-((1R,3R)-2-(2,2-difluoroethyl)-3-methyl-2,3,4,9-tetrahydro-1H-pyrido[3,4-b]indol-1-yl)-3,5-difluorophenyl)piperidin-4-yl)methyl)piperidin-4-yl)methyl)-2-(2,6-dioxopiperidin-3-yl)-6,7-dihydropyrrolo[3,4-f]isoindole-1,3(2H,5H)-dione] | < 10 nM
13 | C[C@@H]1Cc2c([nH]c3ccccc23)[C@@H](c2c(F)cc(N3CCC(CN4CCC(N5Cc6cc7c(cc6C5)C(=O)N(C5CCC(=O)NC5=O)C7=O)C4)CC3)cc2F)N1CC(F)F (stereo partly drawn) [E 129, 6-(1-((1-(4-((1R,3R)-2-(2,2-difluoroethyl)-3-methyl-2,3,4,9-tetrahydro-1H-pyrido[3,4-b]indol-1-yl)-3,5-difluorophenyl)piperidin-4-yl)methyl)pyrrolidin-3-yl)-2-(2,6-dioxopiperidin-3-yl)-6,7-dihydropyrrolo[3,4-f]isoindole-1,3(2H,5H)-dione] | < 10 nM
14 | C[C@@H]1Cc2c([nH]c3ccccc23)[C@@H](c2c(F)cc(N3CCC(CN4CCCC(N5Cc6cc7c(cc6C5)C(=O)N(C5CCC(=O)NC5=O)C7=O)CC4)CC3)cc2F)N1CC(F)F (stereo partly drawn) [E 130, 6-(1-((1-(4-((1R,3R)-2-(2,2-difluoroethyl)-3-methyl-2,3,4,9-tetrahydro-1H-pyrido[3,4-b]indol-1-yl)-3,5-difluorophenyl)piperidin-4-yl)methyl)azepan-4-yl)-2-(2,6-dioxopiperidin-3-yl)-6,7-dihydropyrrolo[3,4-f]isoindole-1,3(2H,5H)-dione] | < 10 nM
15 | C[C@@H]1Cc2c([nH]c3ccccc23)[C@@H](c2c(F)cc(N3CCC(CN4CC5(CC(N6Cc7cc8c(cc7C6)C(=O)N(C6CCC(=O)NC6=O)C8=O)C5)C4)CC3)cc2F)N1CC(F)F (stereo partly drawn) [E 131, 6-(2-((1-(4-((1R,3R)-2-(2,2-difluoroethyl)-3-methyl-2,3,4,9-tetrahydro-1H-pyrido[3,4-b]indol-1-yl)-3,5-difluorophenyl)piperidin-4-yl)methyl)-2-azaspiro[3.3]heptan-6-yl)-2-(2,6-dioxopiperidin-3-yl)-6,7-dihydropyrrolo[3,4-f]isoindole-1,3(2H,5H)-dione] | < 10 nM
